Measurements: patent US6046231A, “Use of 4'-bromoflavone in a cancer chemopreventative composition and method” (The Board of Trustees of the University of Illinois, priority 1999, dated 2000)

Tests used:
[1] = system: quinone reductase (QR), Hepa 1c1c7 cells; assay: Quinone reductase (QR) induction in Hepa 1c1c7 cells; assay type: cell-based, murine
Source text: This test was used because the specific activity of QR rises concomitantly with other phase II enzymes in many animal tissues in response to various chemopreventive agents. The study included natural and synthetic B-ring substituted flavones, as well as biosynthetic precursor chalcones and flavanones.
Determination of Quinone Reductase Activity in Cell Cultures. To determine the potency of inducers, Hepa 1c1c7 murine hepatoma cells as described in the Gerhauser publication were placed in 96-well plates at a density of 1×10^4 cells/ml in 200 μl of medium. After a preincubation period of 24 hr, the media were decanted and 190 μl fresh media were added to each well. Ten (10) μl test agents dissolved in 10% DMSO (final concentration of DMSO is 0.5%) with a serial 2-fold dilutions were introduced to each well, and the plates were incubated for an additional 48 hours. Specific QR activity was determined by measuring the NADPH-dependent menadiol-mediated reduction of 3-(4, 5-dimethylthiazo-2-yl)-2,5-diphenyltetrazolium bromide to blue formazan formed per mg protein per minute. Protein was determined in an identical set of test plates by staining with crystal violet. Hepa 1c1c7 cells retain many characteristics of normal issues, particularly the capacity for carcinogen activation and metabolism. They are amenable to precise control of environmental, nutritional, and hormonal factors. […] Induction of QR activity was calculated by comparing the QR specific activity of agent-treated cells with that of solvent-treated cells, and a plot of ratio was generated. CD represents the concentration required to double QR induction. Chemopreventive index (CI) is an indexing value generated by comparing CD with IC50 (concentration for 50% inhibition of cell viability) values.
Induction of Quinone Reductase in Hepa 1c1c7 Cells. […] Modification of the B-ring of chalcones, flavanones, and flavones was hypothesized to induce torsion of the B-ring, and, therefor, simulate out-of-plane distortions characteristic of polycyclic aromatic hydrocarbons, such as DMBA. Induction of QR activity was calculated by comparing the QR specific activity of agent-treated cells with the QR specific activity of solvent-treated cells, and a plot of ratios was generated. CD represents the concentration required for a double fold of induction. CI (Chemopreventive Index) is a value obtained by comparing CD with IC50 (concentration for 50% inhibition of cell viability in […]).

quinone reductase (QR) = assay: Induction of quinone reductase (QR) in mouse liver and mammary glands (Table 3); assay type: in vivo
[2] = system: QR mRNA, Hepa 1c1c7 cells; assay: RT-PCR of QR mRNA in Hepa 1c1c7 cells; assay type: cell-based, murine
Protocol: RT-PCR Analysis of QR mRNA Expression. Primers were designed based on rat QR gene and custom synthesis. Total RNA was isolated from cultured Hepa 1c1c7 cells with TRIzol® reagent (Life Technologies, Inc.) and quantified using a UV-spectrometer. The reverse transcription of RNA was performed in a final volume of 20 μl containing 5× First Straind Synthesis Buffer (Life Technologies, Inc.), 5 mM MgCl2, 1 mM of each dNTPs, 1 unit Rnase inhibitor (Life Technologies, Inc.), 2.5 units SuperScript II reverse transcriptase (Life Technologies, Inc.), 2.5 μM oligo (dT)16, 0.2 μg total RNA, and DEPC-treated water. After incubation at 47° C. for 30 min, the RT-reaction was terminated by heating to 70° C. for 15 minutes. To the newly synthesized cDNA (1 μL), a PCR reaction mixture (Advantage KlenTaq polymerase Mix, CloneTech) containing 3 mM MgCl2, 2.5 units Taq polymerase, 6 pmol of primers for QR gene (5'-[…]-3'; and 3 pmol of primers for β-actin, 5'-[…]-3'), (5'-[…]-3'; 5'-[…]-3') as internal control was added to bring the final volume to 50 μl. The PCR reaction was heated to 94° C. for 1 min and immediately cycled 27 times through a 30 second denaturing step at 94° C., a 45 second annealing step at 55° C., a 60 second elongation step at 72° C. with Perkin Elmer 2400 themocycler. Following the final cycle, a 5 minute elongation step at 72° C. was performed. Aliquots of the PCR product were electrophoresed on 2.5% agarose gels (Life Technologies, Inc.), and PCR fragments were visualized with ethidium bromide staining, quantified by scanning densitometry, and expressed as folds increase after normalization to β-actin gene expression.
Induction of QR mRNA in Hepa 1c1c7 Cells. […] EHPA 1c1c7 cells were treated with 4'-BF (10 μM) or DMSO (solvent control) for 2, 4, 8, 16, 24, or 48 hours. […] Dose-dependent effects of 4'-BF were analyzed at the time of maximum induction (24 hours), and QR mRNA expression was induced in the concentration range of 0.8-50 μM. In particular, FIG. 2 illustrates RT-PCR analysis of QR mRNA levels in Hepa 1c1c7 cells after treatment with 4'-BF. In FIG. 2(A), Hepa 1c1c7 cells were treated with the indicated concentrations of 4'-BF for 24 hours. In FIG. 2(B), Hepa 1c1c7 cells were treated with 10 μM 4'-BF for the indicated periods of time. Reverse transcription was carried out by SuperScript II reverse transcriptase (Life Technologies, Inc.) and oligo(dT)16. The cDNA was amplified with Advantage Klen Taq polymerase (Clontech) by using QR primers and β-acrin (internal control), aliquots of the PCR product were electrophoresed on 2.5% agarose gels (Bio-Rad), and PCR fragments were visualized with ethidium bromide staining.

O=c1cc(-c2ccc(Br)cc2)oc2ccccc12 [4'-Bromoflavone]
Cq ([1]; Hepa 1c1c7 cells): 0.15 µM | CI, chemoprevention index (IC50/CD) ([1]; IC50/CD, 2880 min): > 17000 | EC (2-fold) ([1]; Mus musculus, Hepa-1c1c7, 48 h, Hepa 1c1c7 cells, 48 h, read-out: CD, concentration to double the specific activity of QR): 0.01 µM | times more active than sulforaphane ([1]; compared to sulforaphane): about 40 times | QR (Treated/Control), Liver (quinone reductase (QR); liver): 5.27 | QR (Treated/Control), Mammary Gland (quinone reductase (QR); mammary gland): 2.66 | QR mRNA levels ([2]; 0-50 μM for 24 h): significantly increased by 4'-BF at various concentrations | QR mRNA, time course from 8 to 24 hours ([2]; 10 μM): no significant differences from 8 to 24 hours | incubation time after which QR mRNA increased ([2]; 10 μM): 8 h | time of maximum QR mRNA induction ([2]; 10 μM): 24 h | concentration range of QR mRNA induction ([2]; 24 h): 0.8 to 50 µM
